PMC6920566 (Journal of molecular biology, 2019)

Test system: MDA-MB-231 cells
Experiment: Fluorescence microscopy of A488-pHLIP cellular interaction
Format: cell-based, human

**Q.** Which results are given for “H2N-GCEQNPIYWARYADWLF-TTPLLLLDLALLVDADEGTG-CONH2 [A488-pHLIP]”?
**A.** A488 fluorescence of cells (microscopy) (pH 5.0, absence of divalent cations): large increase in A488 fluorescence intensity; A488 fluorescence of cells (microscopy) (pH 7.4, 1.8 mM Ca2+): significant increase in A488 fluorescence intensity; A488 fluorescence of cells (microscopy) (pH 7.4, absence of divalent cations, washed before imaging): No significant fluorescence
